We go through 16 molecules from patent publication US7625891B2, “Heterocylic antiviral compounds” (Roche Palo Alto LLC, priority 2007, dated 2009).

In series [1] the target is T1, CCR5 (Homo sapiens, UniProt P51681). The series can be described thus: Human CCR5 receptor-ligand binding assay (125I RANTES, CHO-Gα16-hCCR5 cells). More on the design: expressed in transfected cells. The protocol: The construct was transfected into CHO-Gα16 cells by using Fugene Reagent (Roche).
Adherent cells in […] tissue culture flask (ca. 90% confluent) were harvested using 1 mM EDTA in PBS (phosphate-buffered saline) without Ca^2+ and Mg^2+. Cells were washed twice with PBS containing no Ca^2+ and Mg^2+.
Eighty μl CHO-Gα16-hCCR5 (1×10^6/mL) cells were added to 96 well plates.
The compound dilutions were made in PBS, 1% BSA. Total reaction volume was 100 μl per well. The test compounds were added to the cells prior to the addition of radioligand.
After incubation, the cells were harvested onto GF/C filter plates using Packard cell harvester. Filters were pretreated with 0.3% PEI/0.2% BSA for 30 min. The filter plate was washed rapidly 5 times with 25 mM HEPES, 500 mM NaCl, 1 mM CaCl2 and 5 mM MgCl2 adjusted to pH 7.1. Plates were dried in oven (70° C.) for 20 min, added with 40 μl scintillation fluid and sealed with Packard TopSeal-A. Packard Top Count was used to measure of the radioactivity for 1 min per well.
Total binding was determined with control wells added with radioisotope and buffer and the non-specific binding was determined using an excess cold RANTES to some of the control wells. Specific binding was determined by subtracting the non-specific form total binding. […] IC50 values were determined using varying concentrations of the test ligand in triplicates and the data was analyzed using GraphPad Prism (GraphPad, San Diego, Calif.).

Another series has as its system NLBal pseudotyped HIV-1. The series is described as follows: microbe, parasite or virus in culture. In kind it is cell-based. Particulars: Human immunodeficiency virus 1, JC53BL, 72 h. The method, then: The sensitivity of a recombinant HIV-1 virus pseudotyped with the envelope proteins of the CCR5-tropic virus NLBal to test compounds was determined in a Luciferase reporter assay using JC53BL cells. NLBal pseudotyped HIV-1 was generated by calcium phosphate transfection of 293T cells (ATCC) with equal amounts of DNA of an envelope-deleted HIV-1 plasmid and of a NLBal envelope expression plasmid. The media (DMEM, 10% fetal bovine serum, 1% Penicillin/streptomycin, 1% Glutamine, all Gibco) was changed 16 h post-transfection and virus containing supernatant was harvested 48 h post-transfection. To determine the sensitivity of NLBal pseudotyped HIV-1, 25.000 JC53BL cells (NIH AIDS Reagent Program) were infected with NLBal pseudotyped HIV-1 in presence of a drug gradient in white 96 well plates (Greiner Bio-one). The volume was adjusted to 200 μL using assay media (DMEM, 10% fetal bovine serum, 1% Penicillin/streptomycin, 1% Glutamine). After incubation at 37° C., 90% relative humidity, 5% CO2 for 3 days, 50 μL of Steady-Glo® Luciferase reagent (Promega) was added, incubated for 5 min at RT and luminescence was measured using a luminometer (Luminoskan, Thermo). The 50% and 90% inhibitory concentrations were calculated using Microsoft XL Fit 4 software.

Series [2] concerns the target T1, CCR5. The series is described as follows: CCR5-mediated CCF (cell-cell fusion) assay, Hela-R5 / CEM-NKr-CCR5-Luc, luciferase readout. In kind it is cell-based. Also on record: host or cells: CEM-NKr-CCR5-Luc cells. Particulars: 24 hrs co-culture. The method, then:
The capacity for novel compounds of the present invention to bind to the CCR5 receptor and thereby antagonize CCR5 function can be evaluated with assay systems known in the art. The capacity of compounds of the present invention to inhibit infection of CD4^+/CCR5^+ expressing cells can be determined using a cell-cell fusion assay as described in example 8 or an antiviral assay as described in example 9.
CCF assay was performed as described before (C. Ji, J. Zhang, N. Cammack and S. Sankuratri, J. Biomol. Screen. 2006 11(6):652-663). Hela-R5 cells (express gp160 from R5-tropic virus and HIV-1 Tat) were plated in 384 well white culture plates (BD Bioscience, Palo Alto, Calif.) at […] per well in phenol red-free Dulbecco's Modified Eagle Medium (DMEM) supplemented with 10% FBS, 1× Pen-Strep, 300 μg/mL G418, 100 μg/mL hygromycin, and 1 μg/mL Doxycycline (Dox) (BD Bioscience, Palo Alto, Calif.), using Multimek (Beckman, Fullerton, Calif.) and incubated at 37° C. overnight to induce the expression of gp160. Ten μL diluted compounds in medium containing 5% DMSO were added to the cells, followed by the addition of CEM-NKr-CCR5-Luc (obtained from NIH AIDS Research & Reference Reagents Program) that expresses CD4 and CCR5 and carries a […] long terminal repeat (LTR)-driven luciferase reporter gene at 1.5×10^4 cells/15 μL/well and incubated for 24 hrs. At the end of co-culture, 15 μL of Steady-Glo luciferase substrate was added into each well, and the cultures were sealed and gently shaken for 45 min. The luciferase activity were measured for 10 sec per well as luminescence by using 16-channel TopCount NXT (PerkinElmer, Shelton, CT) with 10 min dark adaptation and the readout is count per second (CPS). For the drug interaction experiments, small molecule compounds or antibodies were serially diluted in serum-free and phenol red-free RPMI containing 5% DMSO (CalBiochem, La Jolla, Calif.) and 1× Pen-Strep. Five μL each of the two diluted compound or mAb to be tested for drug-drug interactions were added to the Hela-R5 cells right before the addition of target cells.

Series [3] relates to collagen-induced arthritis. The following applies: collagen-induced arthritis model; cited from earlier work.
The test system of another series is HIV. Particulars: cited from earlier work.
Setting [4] is: specific 125I RANTES binding, CHO-Gα16-hCCR5 cells, read-out: IC50.

A value given as a limit tells only on which side of the number the result lay.

T1 sequence (P51681 whole entry): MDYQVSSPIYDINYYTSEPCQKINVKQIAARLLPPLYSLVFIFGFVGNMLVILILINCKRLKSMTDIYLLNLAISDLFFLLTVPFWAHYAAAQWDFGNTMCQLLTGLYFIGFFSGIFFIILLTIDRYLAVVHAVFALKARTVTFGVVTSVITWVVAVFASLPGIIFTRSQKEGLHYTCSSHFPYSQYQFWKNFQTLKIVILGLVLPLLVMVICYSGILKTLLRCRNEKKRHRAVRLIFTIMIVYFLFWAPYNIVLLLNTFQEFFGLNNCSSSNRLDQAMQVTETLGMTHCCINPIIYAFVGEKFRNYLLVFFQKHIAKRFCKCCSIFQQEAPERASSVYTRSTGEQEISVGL

For the molecule `CCCC[C@H]1CN(CC2COC3OCCC23)C(=O)OC12CCN(C1(C)CCN(C(=O)c3c(C)ncnc3C)CC1)CC2` (single isomer, unassigned) [II-6], the concentration for half-maximal inhibition (IC50) (usually the concentration needed to halve the response being measured) on CCR5 [1] (setting [4]) was found to be 38 nM. As to `CCCCC1CN(C[C@H]2CC[C@H](OC)CC2)C(=O)OC12CCN(C1(C)CCN(C(=O)c3c(C)ncnc3C)CC1)CC2` (stereo partly drawn) [Compound I-3, 5-Butyl-9-[1-(4,6-dimethyl-pyrimidine-5-carbonyl)-4-methyl-piperidin-4-yl]-3-(trans-4-methoxy-cyclohexylmethyl)-1-oxa-3,9-diaza-spiro[5.5]undecan-2-one], the melting point – broadly, the temperature of the solid-liquid transition – lay within 150.8 to 152.9 °C. In turn, `CCCCC1CN(C[C@H]2CC[C@H](OCC)CC2)C(=O)OC12CCN(C1(C)CCN(C(=O)c3c(C)ncnc3C)CC1)CC2` (stereo partly drawn) [Compound I-7, 5-Butyl-9-[1-(4,6-dimethyl-pyrimidine-5-carbonyl)-4-methyl-piperidin-4-yl]-3-(trans-4-ethoxy-cyclohexylmethyl)-1-oxa-3,9-diaza-spiro[5.5]undecan-2-one] returned a melting point of 188.3 to 189.7 °C.

`CCCCC1CN(C[C@H]2CC[C@@H](OCOC)CC2)C(=O)OC12CCN(C1(C)CCN(C(=O)c3c(C)ncnc3C)CC1)CC2` (stereo partly drawn) [Compound I-8, 5-Butyl-9-[1-(4,6-dimethyl-pyrimidine-5-carbonyl)-4-methyl-piperidin-4-yl]-3-(cis-4-methoxymethoxy-cyclohexylmethyl)-1-oxa-3,9-diaza-spiro[5.5]undecan-2-one] gave an IC50 in the series on NLBal pseudotyped HIV-1 of 5.2 nM. Turning to `CCCC[C@H]1CN(C[C@H]2[C@@H]3COC[C@@H]32)C(=O)OC12CCN(C1(C)CCN(C(=O)c3c(C)cc(C(F)F)nc3C)CC1)CC2` [II-4], the IC50 on CCR5 [1] (setting [4]) stood at 10.8 nM. Turning to `CCCC[C@H]1CN(C[C@H]2COCCO2)C(=O)OC12CCN(C1(C)CCN(C(=O)c3c(C)cc(C#N)nc3C)CC1)CC2` [II-10], the IC50 was determined as 17.2 nM on CCR5 [1] (setting [4]), 1 nM at CCR5 [2] and 2.6 nM in the series on NLBal pseudotyped HIV-1. In the case of `CCCCC1CN(CC2CCN(C(C)=O)CC2)C(=O)OC12CCN(C1(C)CCN(C(=O)c3c(C)ncnc3C)CC1)CC2` (stereo not shown) [III-1, 3-(1-Acetyl-piperidin-4-ylmethyl)-5-butyl-9-[1-(4,6-dimethyl-pyrimidine-5-carbonyl)-4-methyl-piperidin-4-yl]-1-oxa-3,9-diaza-spiro[5.5]undecan-2-one], the IC50 against CCR5 [2] came to 25.2 nM. On the same count and under the same terms, as for `CCCCC1CN(CC2CCCN(C(C)=O)C2)C(=O)OC12CCN(C1(C)CCN(C(=O)c3c(C)ncnc3C)CC1)CC2` (stereo not shown) [III-2], the figure is 17.4 nM. Consider `CCCC[C@H]1CN(CC2CCN(C(=O)OC)CC2)C(=O)OC12CCN(C1(C)CCN(C(=O)c3c(C)ncnc3C)CC1)CC2` [III-6], for which the IC50 on CCR5 [1] (setting [4]) stood at 46.5 nM. At CCR5 [1], `CCCC[C@H]1CN(CC2CCN(CC(F)F)CC2)C(=O)OC12CCN(C1(C)CCN(C(=O)c3c(C)cc(C#N)nc3C)CC1)CC2` [III-12] registered an IC50 of 49.4 nM. Turning to `CCCC[C@H]1CN(C[C@H]2[C@@H]3CN(C(=O)OC)C[C@@H]32)C(=O)OC12CCN(C1(C)CCN(C(=O)c3c(C)noc3C(F)(F)F)CC1)CC2` [III-20], the IC50 at CCR5 [1] (setting [4]) is 14 nM; against CCR5 [2] it was less than 2.5 nM; in the series on NLBal pseudotyped HIV-1, 3 nM. Regarding `CCCC[C@H]1CN(C[C@H]2C[C@H]3CC[C@@H](C2)N3C(=O)OC)C(=O)OC12CCN(C1(C)CCN(C(=O)c3c(C)ncnc3C)CC1)CC2` [III-22], the results for the IC50 on CCR5 [1] (setting [4]), against CCR5 [2] and in the series on NLBal pseudotyped HIV-1 were 21.2 nM, 3 nM and 2.2 nM, respectively. The matching figures for `CCCC[C@H]1CN(CC2CCN(S(C)(=O)=O)CC2)C(=O)OC12CCN(C1(C)CCN(C(=O)c3c(C)noc3C(F)(F)F)CC1)CC2` [III-23]: 38.8 nM, less than 2.5 nM and 6 nM.

Turning to `CCCC[C@H]1CN(C2CCC(F)(F)CC2)C(=O)OC12CCN(C1(C)CCN(C(=O)c3c(C)ncnc3C)CC1)CC2` [IV-7, (S)-5-Butyl-3-(4,4-difluoro-cyclohexyl)-9-[1-(4,6-dimethyl-pyrimidine-5-carbonyl)-4-methyl-piperidin-4-yl]-1-oxa-3,9-diaza-spiro[5.5]undecan-2-one], on CCR5 [1] (setting [4]), the IC50 amounted to 19.2 nM. For the molecule `Cc1ccc(-c2ccc3c(c2)C=C(C(=O)Nc2ccc(C[N+](C)(C)C4CCOCC4)cc2)CCC3)cc1.[Cl-]` [TAK-779], in series [3], the “incidence and severity of arthritis” value is “reduce both the incidence and severity of arthritis”; the “infiltration of inflammatory CCR5+ T-cells into the joint” value is “inhibited”.

B1: RANTES: CC chemokine, naturally occurring ligand that can stimulate the CCR5 receptor (protein, UniProt P13501 24-91, looked up)
C-C motif chemokine 5: SPYSSDTTPCCFAYIARPLPRAHIKEYFYTSGKCSNPAVVFVTRKNRQVCANPEKKWVREYINSLEMS
Regarding B1, the “HIV entry into the cells” value with HIV is given as “block HIV entry into the cells”.
